The experiment addresses Fibroblast growth factor 22 (Homo sapiens) (UniProt Q9HCT0). Briefly: FGF22 ligand-induced thermal stabilization – biophysical, thermal shift, cherry-pick, FGF22 synaptogenesis inhibitor project, dose response (AID 687022). The settings on record: recombinant FGF22 thermal shift, SYPRO orange melting.

53 molecules from PubChem BioAssay AID687022 (Broad Institute, 2013) can be followed below.

SMILES strings stand for the structures. Activity calls are given as the source filed them.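 The calls were made as follows: active = Fitted curve of melting temperature shift crosses the 1.0 threshold at or below the sample's highest valid tested concentration; inconclusive = Flat fit with activity 30 to 70, or invalid fit; inactive = Opposite direction, flat within 30, or no crossing.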 A value given as a limit tells only on which side of the number the result lay.

Sequence of Fibroblast growth factor 22 (Homo sapiens) (Q9HCT0 whole entry, looked up): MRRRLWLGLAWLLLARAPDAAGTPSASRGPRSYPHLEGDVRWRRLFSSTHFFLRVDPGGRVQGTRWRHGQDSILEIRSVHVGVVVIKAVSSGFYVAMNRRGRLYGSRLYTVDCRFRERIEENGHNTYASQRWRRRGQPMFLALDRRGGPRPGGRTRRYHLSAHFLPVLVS

Turning to `O=C(Nc1nccs1)C1CC(=O)N(c2ccc(F)cc2)C1` (stereo not drawn), the AbsAC1 (concentration giving Tm-shift threshold 1.0) was 8.93 µM.
Next, `CSCCC(NS(=O)(=O)c1ccc(Cl)c(Cl)c1)C(=O)O` (stereo not drawn): > 38 µM (inactive); `CC(=O)Nc1cccc(NC(=O)c2ccc3[nH]c(C)c(C)c3c2)c1`: 5.11 µM; `O=S1(=O)N=C(N(Cc2cccs2)c2ccc(O)cc2)c2ccccc21`: 1.47 µM.
In the case of `O=C(Nc1nc(=O)n(C(=O)C2CC2)s1)c1ccccc1` it was 20.7 µM; in that of `CN(Cc1c(C(=O)N/N=C/c2ccc(O)cc2)nnn1-c1nonc1N)c1ccccc1`, 0.867 µM; in that of `Cc1ccsc1C(=O)NNC(=O)c1ccc(NS(=O)(=O)c2cccs2)cc1`, 11.6 µM.
In the case of `COc1cc(NC(=O)c2cnc(N)s2)cc(C(=O)Nc2cccc(C(F)(F)F)c2)c1`, the AbsAC1 (concentration giving Tm-shift threshold 1.0) was 2.42 µM.
For the molecule `Cc1cccc(S(=O)(=O)N2C[C@@H](O)COC[C@H]3O[C@H](CC(=O)Nc4ccc(-c5ccccc5)cc4)CC[C@@H]32)c1`, the AbsAC1 (concentration giving Tm-shift threshold 1.0) is 16.6 µM.
Regarding `Nc1nc(O)c(Sc2ccccc2[N+](=O)[O-])c(=O)[nH]1`, the AbsAC1 (concentration giving Tm-shift threshold 1.0) was 2.7 µM.
For the molecule `Cc1ccc(S(=O)(=O)NCCC(=O)Nc2ccc(C)c(Cl)c2)cc1C`, the AbsAC1 (concentration giving Tm-shift threshold 1.0) is 4.71 µM.
Next, `O=C(CC(=O)c1ccccc1)Nc1cccc([N+](=O)[O-])c1`: 4.49 µM; `CC(C)c1ccc(-n2c(O)c(/C=N/NC(=O)c3ccccc3O)c(=O)[nH]c2=S)cc1`: 3.91 µM.
In the case of `COc1cc(/C=C2/S/C(=N/S(=O)(=O)Cc3ccccc3)NC2=O)c([N+](=O)[O-])cc1OC` it was 3.72 µM.
Next, `Cc1ccccc1S(=O)(=O)NCC[C@@H]1CC[C@@H](NC(=O)Nc2cccc(Cl)c2)[C@@H](CO)O1`: 8.07 µM; `O=C(NCC[C@@H]1CC[C@H](NC(=O)c2cnccn2)[C@H](CO)O1)Nc1ccc(F)cc1`: 41 µM.
With `Oc1ccc(-c2nc3ccccc3s2)c(O)c1`, the AbsAC1 (concentration giving Tm-shift threshold 1.0) is 5.15 µM.
As for `COc1ccc(NC(=O)N(C)C[C@@H]2Oc3ccc(NC(=O)Cc4ccccc4)cc3C(=O)N([C@H](C)CO)C[C@H]2C)cc1`, the AbsAC1 (concentration giving Tm-shift threshold 1.0) was 39.8 µM.
In the case of `C[C@H](CO)N1C[C@H](C)[C@H](CN(C)C(=O)Nc2ccc3c(c2)OCO3)Oc2cc(C3=CCCCC3)ccc2S1(=O)=O` it was 20.3 µM; in that of `CCNC(=O)C[C@@H]1CC[C@H]2[C@H](COc3ccc(NC(=O)Nc4ccc(Cl)cc4)cc3C(=O)N2C)O1`, 6.25 µM; in that of `O=C(Nc1nc(-c2ccccn2)cs1)c1cccc(S(=O)(=O)N2CCOCC2)c1`, 9.23 µM.
Next, `O=Cc1cc(OCc2ccccc2)ccc1[B-](F)(F)F`: 4.64 µM; `Cc1cc(C)cc(NC(=O)CN2C(=O)NC(Cc3c[nH]c4ccccc34)C2=O)c1` (stereo not drawn): 13 µM; `COc1ccc(S(=O)(=O)N(NC2=NS(=O)(=O)c3ccccc32)C(=O)C(C)C)cc1`: > 38 µM (inactive).
Regarding `Cc1ccc(NC(=O)CN2C(=O)NC(Cc3c[nH]c4ccccc34)C2=O)cc1` (stereo not drawn), the AbsAC1 (concentration giving Tm-shift threshold 1.0) was 16.2 µM.
In the case of `COc1ccc(Cc2nnc(NS(=O)(=O)c3ccccc3)s2)cc1` it was > 19.5 µM (inactive); in that of `O=C(NCC1CC1)c1onc(CSc2ccc(F)cc2)c1C(=O)NCC1CC1`, 2.58 µM; in that of `COc1cc(/C=N/NC(=O)c2[nH]nc3c2CCc2ccccc2-3)ccc1O`, 6.1 µM.
On to `CCCC(=O)c1ccc(OCc2cn(CC(=O)c3ccc(O)cc3)nn2)cc1`, for which the AbsAC1 (concentration giving Tm-shift threshold 1.0) was 8.45 µM.
Next, `COc1cc(OC)cc(C(=O)Nc2ccc(S(=O)(=O)Nc3nc(C)cc(C)n3)cc2)c1`: 15.5 µM; `C[C@@H]1CN([C@@H](C)CO)S(=O)(=O)c2ccc(-c3cccc(C#N)c3)cc2O[C@@H]1CN(C)C(=O)Nc1cc(F)ccc1F`: > 38 µM (inactive); `CO[C@@H](CN(C)S(=O)(=O)c1cccc(Cl)c1)[C@@H](C)CN([C@@H](C)CO)S(=O)(=O)c1cccc(Cl)c1`: 5.29 µM.
Next, `CS(=O)(=O)c1ccc2nc(NC(=O)c3ccc(Cl)nc3)sc2c1`: 22.9 µM.
Next, `O=C(O)c1cccc(NS(=O)(=O)c2ccc(-c3ccc(S(=O)(=O)Nc4cccc(C(=O)O)c4)cc3)cc2)c1`: 1.2 µM.
`COc1ccc(N2C(=O)C(CC(=O)Nc3ccccc3)N(Cc3ccccn3)C2=S)cc1` (stereo not drawn): the AbsAC1 (concentration giving Tm-shift threshold 1.0) was 9.43 µM.
In the case of `O=C(N/N=C/c1c[nH]c2ccccc12)c1ccc(O)c(O)c1` it was 3.74 µM; in that of `Cc1ccn(-c2ccc(NC(=O)c3cccs3)cc2)n1`, 3.72 µM; in that of `COc1cc(/C=N/NC(=O)c2cc3ccccc3[nH]2)ccc1O`, 1.49 µM.
Consider `Oc1cc(O)cc(-c2cc3ccc(O)cc3o2)c1`, for which the AbsAC1 (concentration giving Tm-shift threshold 1.0) was 14.9 µM.
As for `O=C(N/N=C/c1ccncc1)c1cccc(N/N=C/c2ccncc2)c1`, the AbsAC1 (concentration giving Tm-shift threshold 1.0) is 8.51 µM.
In the case of `O=C(O)c1ccc(Cl)c(S(=O)(=O)Nc2ccc(S(=O)(=O)N3CCCC3)cc2)c1` it was 14.1 µM; in that of `COc1ccc(-c2ccc([C@H]3[C@H]4CN(C(=O)c5ccc6c(c5)OCO6)CCCCN4[C@H]3CO)cc2)cc1`, 15.9 µM.
For the molecule `CCc1ccc(N2CC(C(=O)OCC(=O)Nc3ccc(C(C)=O)cc3)CC2=O)cc1` (stereo not drawn), the AbsAC1 (concentration giving Tm-shift threshold 1.0) was 17.7 µM.
In the case of `COc1cccc(NC(=O)CN(C)C(=O)c2ccc(N3CCCCC3)c([N+](=O)[O-])c2)c1` it was 11.4 µM; in that of `O=C(N/N=C/c1c[nH]c2ccccc12)c1cccs1`, 2.71 µM.
In the case of `Cc1nc2ccc(NC(=O)c3ccc(C)c(S(=O)(=O)N4CCOCC4)c3)cc2s1` it was 25.9 µM; in that of `O=[N+]([O-])c1cccc(S(=O)(=O)Nc2ccc(-c3ccc(N4CCOCC4)nn3)cc2)c1`, 7.01 µM; in that of `CCn1ccnc1CN(C)C(=O)c1ccc2nc(Cc3ccc(OC)cc3)oc2c1`, 11.9 µM.
`CC1(C(=O)NS(=O)(=O)Cc2cccc(Cl)c2)CCN1C(=O)C1(c2ccc(Cl)cc2)CCC1` (stereo not drawn): the AbsAC1 (concentration giving Tm-shift threshold 1.0) was > 10 µM (inactive).
Next, `C[C@@H]1CN([C@H](C)CO)S(=O)(=O)c2ccc(C3=CCCC3)cc2O[C@@H]1CN(C)C(=O)Nc1ccc2c(c1)OCO2`: 20.2 µM; `CCOc1cccc(C(=O)Nc2ccc3[nH]ncc3c2)c1`: 3.89 µM; `Oc1ccc(/C=N/N=C/c2ccc(O)c(O)c2)cc1O`: 2.05 µM.
Next, `Cc1[nH]c2ccccc2c1/C=N/NC(=O)c1cccc(F)c1`: 9.79 µM.
